± gives the expanded uncertainty stated by the source.
Experiment: mn = molality of the nth substance listed, in mol/kg
Conditions: Liquid

NC(N)=O [urea] + O
mass density [kg/m3]
Conditions	101 kPa	10000 kPa	25000 kPa	50000 kPa	75000 kPa	100000 kPa
278.15 K, Constant-volume piezometry, m1 = 0.1809	–	1007.91 ± 0.18	1014.96 ± 0.26	1026.22 ± 0.45	1036.88 ± 0.66	1046.98 ± 0.87
278.15 K, Constant-volume piezometry, m1 = 0.4362	–	1012.23 ± 0.18	1019.23 ± 0.26	1030.39 ± 0.46	1040.96 ± 0.66	1050.97 ± 0.87
278.15 K, Constant-volume piezometry, m1 = 0.5644	–	1014.35 ± 0.18	1021.32 ± 0.26	1032.44 ± 0.46	1042.96 ± 0.66	1052.94 ± 0.87
278.15 K, Constant-volume piezometry, m1 = 1.609	–	1030.49 ± 0.25	1037.26 ± 0.32	1048.03 ± 0.5	1058.21 ± 0.7	1067.87 ± 0.9
278.15 K, Constant-volume piezometry, m1 = 2.505	–	1042.94 ± 0.25	1049.56 ± 0.32	1060.07 ± 0.5	1069.97 ± 0.71	1079.44 ± 0.92
278.15 K, Constant-volume piezometry, m1 = 3.376	–	1053.98 ± 0.25	1060.45 ± 0.33	1070.75 ± 0.51	1080.48 ± 0.71	1089.73 ± 0.93
278.15 K, Constant-volume piezometry, m1 = 5.39	–	1076.38 ± 1.1	1082.6 ± 1.1	1092.51 ± 1.2	1101.91 ± 1.3	1110.78 ± 1.4
278.15 K, Constant-volume piezometry, m1 = 8	–	1100.31 ± 1.1	1106.3 ± 1.1	1115.83 ± 1.2	1124.88 ± 1.3	1133.5 ± 1.5
278.15 K, Constant-volume piezometry, m1 = 10.99	–	1122.33 ± 1.1	1128.15 ± 1.2	1137.36 ± 1.2	1146.09 ± 1.4	1154.43 ± 1.5
278.15 K, Constant-volume piezometry, m1 = 12.8	–	1133.68 ± 1.1	1139.4 ± 1.2	1148.51 ± 1.3	1157.08 ± 1.4	1165.23 ± 1.5
278.15 K, Vibrating tube method, m1 = 4.33	1060.83 ± 0.21	–	–	–	–	–
278.15 K, Vibrating tube method, m1 = 5.39	1072.16 ± 0.96	–	–	–	–	–
278.15 K, Vibrating tube method, m1 = 8	1096.24 ± 0.87	–	–	–	–	–
278.15 K, Vibrating tube method, m1 = 9.9	1110.86 ± 0.71	–	–	–	–	–
278.15 K, Vibrating tube method, m1 = 12.8	1129.78 ± 0.67	–	–	–	–	–
279.15 K, Vibrating tube method, m1 = 0.093	1001.56 ± 0.08	–	–	–	–	–

Reference: the NIST ThermoML archive (doi:10.1016/j.jct.2018.01.024)
